Measured values reported in patent US7557133B2, “Caspase inhibitors containing isoxazoline ring” (LG Life Sciences Ltd., priority 2003, dated 2009).

Assays:
caspase-8 = target: T1, caspase-8 (Homo sapiens, UniProt Q14790); experiment: Caspase-8 inhibitory effect (fluorescent substrate AcDEVD-AFC); type: biochemical; settings: 25° C., 50 μM AcDEVD-AFC, 2.1 nM caspase-8; for kinact/KI: pH 7.5, read-out: Caspase-8 Kobs/[I] (converted)
T1 construct: p10 and p20 subunits (Thornberry, N. A. et al, Nature, 1992, 356, 768) were expressed in E. coli; made in house; host or cells: E. coli
Experimental: Caspase-1 and caspase-8 known as cysteine proteases in the form of α2β2 were expressed, purified, and activated by modifying a method known in Thornberry, N. A. et al, Nature, 1992, 356, 768. Thornberry, N. A. Methods in Enzymology, 1994, 244, 615. Walker, N. P. C. et al. Cell, 1994, 78, 343, and caspase-9 was also purified by a similar method, and the inhibitory activity against them was tested. Briefly describing, p10 and p20 subunits (Thornberry, N. A. et al, Nature, 1992, 356, 768) were expressed in E. coli and purified by nickel column and anionic exchange chromatography to give caspase-1, caspase-8 and caspase-9. The fluorescent substrate AcYVAD-AFC for thus obtained caspase-1, AcDEVD-AFC for caspase-8, and AcLEHD-AFC for caspase-9 were used for determining specific activity of the synthesized inhibitors. The enzyme reaction was carried out at 25° C. with various concentrations of the inhibitors in a buffer solution containing 50 mM HEPES(pH 7.50), 10% (w/v) sucrose, 0.1% (w/v) CHAPS, 100 mM NaCl, 1 mM EDTA, and 10 mM DTT in the presence of 50 μM AcYVAD-AFC for 10 nM caspase-1, 50 μM AcDEVD-AFC for 2.1 nM caspase-8, and 150 μM AcLEHD-AFC for 200 nM caspase-9. The inhibitory constants Ki and Kobs of the inhibitors were determined by measuring the reaction velocity with the time lapse using a fluorescent spectrometer and by obtaining the initial rate constant. Ki was calculated from the Lineweaver Burk Plot, and Kobs from the following Equation 1. Kobs=−ln(1−At/Aoo)/t Equation 1
At means cleavate rate (%) at time t, and
Aoo means the maximum cleavage rate (%).
Spectra MAX GeminiXS Fluorescent Spectrometer of Molecular Device Co. was used at the excitation wavelength of 405 nm and the emission wavelength of […].

[1] = test system: Jurkat cell (ATCC TIB-152); experiment: Jurkat cell apoptosis by Fas antibody, WST-1 method; type: cell-based; settings: apoptosis using Fas antibody, WST-1; for IC50: Homo sapiens, Jurkat
Experimental: The […] inhibitory activity of the inhibitors was determined by subjecting Jurkat cell (ATCC TIB-152) to apoptosis using Fas antibody (Upstate Biotech 05-201) and by detecting the color change according to the WST-1 method known in Francoeur A. M. and Assalian A. (1996) Biochemica 3, 19-25 to observe the amount of alive Jurkat cells when the cells were treated by the inhibitor. Spectra MAX 340 Spectrometer of Molecular Device Co. was used at the absorbance wavelength of 440 nm.

T1 sequence (Q14790 217-374 limits assumed, species assumed): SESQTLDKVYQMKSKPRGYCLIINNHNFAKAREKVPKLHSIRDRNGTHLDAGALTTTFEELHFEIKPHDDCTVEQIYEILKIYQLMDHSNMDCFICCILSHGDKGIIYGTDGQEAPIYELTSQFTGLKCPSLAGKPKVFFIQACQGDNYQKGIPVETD
T1 sequence (Q14790 385-479 limits assumed, species assumed): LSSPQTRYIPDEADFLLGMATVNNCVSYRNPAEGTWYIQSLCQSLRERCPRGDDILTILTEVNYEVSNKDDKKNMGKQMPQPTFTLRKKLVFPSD

Row | kinact/KI (caspase-8) [M⁻¹ s⁻¹] | IC50 [1] [µM] | Jurkat cell IC50 [1] | Caspase-8 Kobs/[I] (caspase-8) | Structure (SMILES)
1 | 2670 | 2 | – | – | CCC1(C(=O)NC(CC(=O)O)C(=O)CF)CC(c2c(C)c3ccccc3n2C)=NO1 (stereo not drawn) [Imm, 3-({[3-(1,3-Dimethyl-1H-indol-2-yl)-5-ethyl-4,5-dihydro-5-isoxazolyl]carbonyl}amino)-5-fluoro-4-oxopentanoic acid]
2 | 3170 | 4.7 | – | – | CCC1(C(=O)NC(CC(=O)O)C(=O)CF)CC(c2ccnc3ccccc23)=NO1 (stereo not drawn) [Ijj, 3-({[5-Ethyl-3-(4-quinolinyl)-4,5-dihydro-5-isoxazolyl]carbonyl}amino)-5-fluoro-4-oxopentanoic acid]
3 | 667 | 26.5 | – | – | CCC1(C(=O)NC(CC(=O)O)C(=O)CF)CC(c2cccc3cccnc23)=NO1 (stereo not drawn) [Ixx, 3-({[5-ethyl-3-(8-quinolinyl)-4,5-dihydro-5-isoxazolyl]carbonyl}amino)-5-fluoro-4-oxopentanoic acid]
4 | 2000 | 1.1 | – | – | CCC1(C(=O)NC(CC(=O)O)C(=O)CF)CC(c2cc3ccccc3s2)=NO1 (stereo not drawn) [Ikk, 3-({[3-(benzothiophen-2-yl)-5-ethyl-4,5-dihydro-5-isoxazolyl]carbonyl}amino)-5-fluoro-4-oxopentanoic acid]
5 | 383000 | – | – | – | CC(C)[C@@]1(C(=O)N[C@@H](CC(=O)O)C(=O)CF)CC(c2nccc3ccccc23)=NO1 [Iii-1, (3S)-5-fluoro-3-({[(5R)-5-isopropyl-3-(1-isoquinolinyl)-4,5-dihydro-5-isoxazolyl]carbonyl}amino)-4-oxopentanoic acid]
6 | 4330 | 6.5 | – | – | CCC1(C(=O)N[C@@H](CC(=O)O)C(=O)COc2c(F)c(F)cc(F)c2F)CC(Cc2cccc3ccccc23)=NO1 (stereo partly drawn) [Inn, (3S)-3-({[5-ethyl-3-(1-naphthylmethyl)-4,5-dihydro-5-isoxazolyl]carbonyl}amino)-4-oxo-5-(2,3,5,6-tetrafluorophenoxy)pentanoic acid]
7 | – | – | No Activity | – | CC(C)[C@@]1(C(=O)N[C@H](/C=C/S(C)(=O)=O)CC(=O)O)CC(c2nccc3ccccc23)=NO1 [Iss, (3S,4E)-3-({[(5R)-5-isopropyl-3-(1-isoquinolinyl)-4,5-dihydro-5-isoxazolyl]carbonyl}amino)-5-(methylsulfonyl)-4-pentenoic acid]
8 | 7830 | – | – | – | CC(C)[C@@]1(C(=O)N[C@H](CC(=O)O)C(=O)CF)CC(c2nccc3ccccc23)=NO1 [Iii-2, (3R)-5-fluoro-3-({[(5R)-5-isopropyl-3-(1-isoquinolinyl)-4,5-dihydro-5-isoxazolyl]carbonyl}amino)-4-oxopentanoic acid]
9 | – | – | No Activity | – | CCOC(=O)/C=C/[C@H](CC(=O)O)NC(=O)[C@]1(C(C)C)CC(c2nccc3ccccc23)=NO1 [Irr, (3S,4E)-6-ethoxy-3-({[(5R)-5-isopropyl-3-(1-isoquinolinyl)-4,5-dihydro-5-isoxazolyl]carbonyl}amino)-6-oxo-4-hexenoic Acid]

Continued, compound first:

Row | Structure (SMILES) | kinact/KI (caspase-8) [M⁻¹ s⁻¹] | IC50 [1] [µM] | Jurkat cell IC50 [1] | Caspase-8 Kobs/[I] (caspase-8)
10 | CCC1(C(=O)NC(CC(=O)O)C(=O)CF)CC(c2ccccc2C(C)C)=NO1 (stereo not drawn) [Iaa1, 3-({[5-Ethyl-3-(2-isopropylphenyl)-4,5-dihydro-5-isoxazolyl]carbonyl}amino)-5-fluoro-4-oxopentanoic acid] | 3000 | 0.33 | – | –
11 | CC(C)[C@@]1(C(=O)NC(CC(=O)O)C(=O)CF)CC(c2cc(C(C)(C)C)ccn2)=NO1 (stereo partly drawn) [Iaa9, 3-[({(5R)-3-[4-(tert-butyl)-2-pyridinyl]-5-isopropyl-4,5-dihydro-5-isoxazolyl}carbonyl)amino]-5-fluoro-4-oxopentanoic acid] | 3830 | 1.24 | – | –
12 | CCC1(C(=O)NC(CC(=O)O)C(=O)CF)CC(c2nccc3c2CCCC3)=NO1 (stereo not drawn) [Iaa16, 3-({[5-Ethyl-3-(5,6,7,8-tetrahydro-1-isoquinolinyl)-4,5-dihydro-5-isoxazolyl]carbonyl}amino)-5-fluoro-4-oxopentanoic acid] | 10300 | 0.73 | – | –
13 | CCC1(C(=O)NC(CC(=O)O)C(=O)CF)CC(c2ccc(C(C)(C)C)cc2)=NO1 (stereo not drawn) [Iaa3, 3-[({3-[4-(tert-Butyl)phenyl]-5-ethyl-4,5-dihydro-5-isoxazolyl}carbonyl)amino]-5-fluoro-4-oxopentanoic acid] | 2330 | 2.65 | – | –
14 | CCC1(C(=O)NC(CC(=O)O)C(=O)CF)CC(c2cc(C3CC3)ccn2)=NO1 (stereo not drawn) [Iaa12, 3-({[3-(4-Cyclopropyl-2-pyridinyl)-5-ethyl-4,5-dihydro-5-isoxazolyl]carbonyl}amino)-5-fluoro-4-oxopentanoic acid] | 3170 | 0.7 | – | –
15 | CC(C)c1ccccc1C1=NO[C@@](C(=O)NC(CC(=O)O)C(=O)CF)(C(C)C)C1 (stereo partly drawn) [Iaa4, 5-Fluoro-3-({[(5R)-5-isopropyl-3-(2-isopropylphenyl)-4,5-dihydro-5-isoxazolyl]carbonyl}amino)-4-oxopentanoic Acid] | 8330 | 0.67 | – | –
16 | CC(C)[C@@]1(C(=O)N[C@@H](CC(=O)O)C(=O)COP(=O)(c2ccccc2)c2ccccc2)CC(c2nccc3ccccc23)=NO1 [Iaa18, (3S)-5-[(diphenylphosphoryl)oxy]-3-({[(5R)-5-isopropyl-3-(1-isoquinolinyl)-4,5-dihydro-5-isoxazolyl]carbonyl}amino)-4-oxopentanoic acid] | 8670 | 1.5 | – | –
17 | CC(C)[C@@]1(C(=O)N[C@@H](CC(=O)O)C(=O)COC2=C(Cc3ccccc3)C(=O)OC2)CC(c2nccc3ccccc23)=NO1 [Iaa20, (3S)-5-[(4-benzyl-5-oxo-2,5-dihydro-3-furanyl)oxy]-3-({[(5R)-5-isopropyl-3-(1-isoquinolinyl)-4,5-dihydro-5-isoxazolyl]carbonyl}amino)-4-oxopentanoic Acid] | 617 | – | No Activity | –
18 | CC(C)[C@@]1(C(=O)N[C@@H](CC(=O)O)C(=O)COc2cccc[n+]2C)CC(c2nccc3ccccc23)=NO1.O=S(=O)([O-])C(F)(F)F [Iaa25, 2-{[(3S)-4-carboxy-3-({[(5R)-5-isopropyl-3-(1-isoquinolinyl)-4,5-dihydro-5-isoxazolyl]carbonyl}amino)-2-oxobutyl]oxy}-1-methylpyridinium trifluoromethanesulfonate] | 2830 | – | No Activity | –
19 | CCC1(C(=O)NC(CC(=O)O)C(=O)CF)CC(c2cc(C3CCCCC3)ccn2)=NO1 (stereo not drawn) [Iaa15, 3-({[3-(4-Cyclohexyl-2-pyridinyl)-5-ethyl-4,5-dihydro-5-isoxazolyl]carbonyl}amino)-5-fluoro-4-oxopentanoic Acid] | 7170 | 0.72 | – | –
20 | Cc1ccc2c(c1)cc(C1=NOC(C(=O)NC(CC(=O)O)C(=O)CF)(C(C)C)C1)n2C (stereo not drawn) [Iaa28, 3-({[3-(1,5-dimethyl-1H-indol-2-yl)-5-isopropyl-4,5-dihydro-5-isoxazolyl]carbonyl}amino)-5-fluoro-4-oxopentanoic Acid] | 30000 | 0.6 | – | –
21 | CC(C)C1(C(=O)NC(CC(=O)O)C(=O)CF)CC(c2cc3cc(Cl)ccc3n2C)=NO1 (stereo not drawn) [Iaa27, 3-({[3-(5-chloro-1-methyl-1H-indol-2-yl)-5-isopropyl-4,5-dihydro-5-isoxazolyl]carbonyl}amino)-5-fluoro-4-oxopentanoic acid] | 13700 | 1.3 | – | –
22 | CCC1(C(=O)N[C@@H](CC(=O)O)C(=O)COc2c(F)c(F)cc(F)c2F)CC(c2ccc3ccccc3c2)=NO1 (stereo partly drawn) [Iee, (3S)-3-({[5-ethyl-3-(2-naphthyl)-4,5-dihydro-5-isoxazolyl]carbonyl}amino)-4-oxo-5-(2,3,5,6-tetrafluorophenoxy)pentanoic acid] | 3000 | 32.6 | – | –
23 | CCC1(C(=O)N[C@@H](CC(=O)O)C(=O)COc2ccccn2)CC(c2ccccc2C(C)C)=NO1 (stereo partly drawn) [Iaa24, (3S)-3-({[5-ethyl-3-(2-isopropylphenyl)-4,5-dihydro-5-isoxazolyl]carbonyl}amino)-4-oxo-5-(2-pyridinyloxy)pentanoic Acid] | – | – | – | No Activity
24 | C=CC(=O)[C@H](CC(=O)O)NC(=O)[C@]1(C(C)C)CC(c2nccc3ccccc23)=NO1 [Iaa22, (3S)-3-({[(5R)-5-isopropyl-3-(1-isoquinolinyl)-4,5-dihydro-5-isoxazolyl]carbonyl}amino)-4-oxo-5-hexenoic acid] | – | – | – | No Activity
